US20190060384A1, “COMPOSITION FOR TREATMENT OR PREVENTION OF LUNG CANCER AND A METHOD THEREFORE” (priority 2017, published 2019)

Tests used:
[1] = Pharmacokinetics of gefitinib after repeated oral Lonicera flos; assay type: in vivo, Sprague-Dawley rats; settings: for concentration at 0.5 h: 0.50 h; for AUC(0-t) / Cmax / Tmax / half-life: po, average
[2] = test system: NCI-H520 non-small cell lung cancer cell xenograft; assay: NCI-H520 xenograft nude mice: tumor volume and tumor weight; assay type: in vivo, athymic nude mice
From the text: (§1) (1) Anticancer effects: Changes in tumor volume, tumor weight, tumor cell volume in a formed mass, and apoptotic cell percentages, and changes in immunoreactivities of caspase-3, PARP, NT, 4-HNE, CD31, Ki-67, COX-2, iNOS, and TNF-α in the formed mass

[3] = test system: NCI-H520 tumor mass; assay: NCI-H520 xenograft nude mice: tumor mass histopathology and immunohistochemistry; assay type: in vivo, athymic nude mice
From the text: as §1

[4] = test system: NCI-H520 cell xenograft nude mice; assay: NCI-H520 xenograft nude mice: tumor-related cachexia (body weight, periovarian fat pad); assay type: in vivo, athymic nude mice
[5] = test system: NCI-H520 cell xenograft nude mice; assay: NCI-H520 xenograft nude mice: immune organ weights and histopathology (spleen, submandibular lymph node); assay type: in vivo, athymic nude mice
[6] = test system: NCI-H520 cell xenograft nude mice; assay: NCI-H520 xenograft nude mice: serum IL-6 and IFN-γ contents; assay type: in vivo, athymic nude mice; settings: vs tumor xenograft control, 35 days
From the text: (3) Effects of suppressing tumor-related cachexia: Changes in body weight, periovarian fat pad weight, and serum IL-6 content and histological change in a periovarian fat pad

[7] = test system: NCI-H520 cell xenograft nude mice; assay: NCI-H520 xenograft nude mice: splenic and peritoneal NK cell activity; assay type: in vivo, athymic nude mice; settings: vs tumor xenograft control, 35 days
[8] = test system: NCI-H520 cell xenograft nude mice; assay: NCI-H520 xenograft nude mice: splenic cytokine contents (TNF-α, IL-1β, IL-10); assay type: in vivo, athymic nude mice
[9] = male, ICR (CrljOri:CD1[ICR]), mouse, in vivo, po
From the text: Day 28; mortality, clinical symptoms, change in body weight, autopsy findings, hematological (14 items; Table 18) and hematochemical (20 items; Table 19) changes, histopathological changes (23 organs: brain cerebrum, cerebellum and bulbar, heart, thymus, lung, testis, epididymis, kidney, adrenal gland, spleen, liver, pancreas, alimentary tract esophagus, fundic portion, pyloric portion, duodenum, jejunum, ileum, cecum, colon and rectum, submandibular lymph node), and changes in content of liver lipid peroxidation and antioxidant defense system glutathione (GSH), and catalase (CAT) and superoxide dismutase (SOD) activities.

[10] = male, Sprague-Dawley, rat, plasma, oral, 10 mg/kg, gefitinib 10 mg/kg oral, control (saline) rats
[11] = male, Sprague-Dawley, rat, plasma, oral, gefitinib 10 mg/kg oral after Lonicera flos 300 mg/kg oral 15 days
[12] = male, Sprague-Dawley, rat, plasma, 10 mg/kg, gefitinib 10 mg/kg oral, Control
[13] = male, Sprague-Dawley, rat, plasma, 10 mg/kg, gefitinib 10 mg/kg oral, Lonicera japonica group (15 days pre-treatment)
[14] = NCI-H520 xenograft nude mice, baseline
[15] = NCI-H520 xenograft nude mice, oral once daily 35 days
[16] = tumor mass, oral once daily 35 days
[17] = vs tumor xenograft control, 35 days

COc1cc2ncnc(Nc3ccc(F)c(Cl)c3)c2cc1OCCCN1CCOCC1 [Gefitinib, gefitinib]
concentration at 0.5 h [1, 10]: 703 ng/mL
concentration at 1 h [1, 10]: 805 ng/mL
concentration at 3 h [1, 10]: 762 ng/mL
concentration at 7 h [1, 10]: 824 ng/mL
concentration at 10 h [1, 10]: 439 ng/mL
concentration at 24 h [1, 10]: 70 ng/mL
concentration at 0.5 h [1, 11]: 571 ng/mL
concentration at 1 h [1, 11]: 645 ng/mL
concentration at 3 h [1, 11]: 531 ng/mL
concentration at 7 h [1, 11]: 579 ng/mL
concentration at 10 h [1, 11]: 430 ng/mL
concentration at 24 h [1, 11]: 53 ng/mL
concentration at […] ([1]; male, Sprague-Dawley, rat, plasma, oral, gefitinib 10 mg/kg oral after Lonicera flos 300 mg/kg oral 15 days, […]): 274 ng/mL
AUC(0-t) [1, 12]: 10800 ng·h/mL
Cmax [1, 12]: 921 ng/mL
Tmax [1, 12]: 3.55 h
half-life [1, 12]: 5.05 h
AUC(0-t) [1, 13]: 8740 ng·h/mL
Cmax [1, 13]: 736 ng/mL
Tmax [1, 13]: 2.89 h
half-life [1, 13]: 4.84 h
time of maximum plasma concentration after administration ([1]; orally administered, rats): about 4 hours
Tumor volume First administration [A] [2, 14]: 459.88 ± 129.50 mm^3
Tumor mass absolute weight [2, 15]: 1.321 ± 0.191 g
Tumor volume Sacrifice [B] [2, 15]: 2486.04 ± 480.24a mm^3
change of the amount of change in tumor volume ([2]; vs tumor xenograft group, 5 weeks): −68.18%
change in tumor absolute weight ([2]; vs tumor xenograft group, 35 days): −47.72%
Immunoreactive cell percentages: 4-hydroxynonenal [3, 16]: 29.12 ± 8.55a %/tumor cells
Immunoreactive cell percentages: CD31 [3, 16]: 29.90 ± 5.37a %/tumor cells
Immunoreactive cell percentages: Cleaved caspase-3 [3, 16]: 25.77 ± 5.73d %/tumor cells
Immunoreactive cell percentages: Cyclooxygenase-2 [3, 16]: 56.48 ± 12.30 %/tumor cells
Immunoreactive cell percentages: INOS [3, 16]: 5.34 ± 1.44 %/tumor cells
Immunoreactive cell percentages: Ki-67 [3, 16]: 45.34 ± 7.63a %/tumor cells
Immunoreactive cell percentages: Nitrotyrosine [3, 16]: 32.93 ± 10.64d %/tumor cells
Immunoreactive cell percentages: PARP [3, 16]: 22.27 ± 10.20d %/tumor cells
Tumor cell volume [3, 16]: 54.48 ± 12.96a %/mm2
change in proportion of the tumor tissue occupied by 4-HNE immunoreactive cells ([3]; vs tumor xenograft control): 928.20%
change in proportion of the tumor tissue occupied by CD31 immunoreactive cells ([3]; vs tumor xenograft control): −41.30%
change in proportion of the tumor tissue occupied by COX-2 immunoreactive cells ([3]; vs tumor xenograft control): 6.37%
change in proportion of the tumor tissue occupied by Ki-67 immunoreactive cells ([3]; vs tumor xenograft control): −41.57%
change in proportion of the tumor tissue occupied by NT immunoreactive cells ([3]; vs tumor xenograft control): 368.85%
change in proportion of the tumor tissue occupied by PARP immunoreactive cells ([3]; vs tumor xenograft control): 673.85%
change in proportion of the tumor tissue occupied by TNF-α immunoreactive cells ([3]; vs tumor xenograft control): 417.98%
change in proportion of the tumor tissue occupied by caspase-3 immunoreactive cells ([3]; vs tumor xenograft control): 364.72%
change in proportion of the tumor tissue occupied by iNOS immunoreactive cells ([3]; vs tumor xenograft control): −11.83%
change in proportion of the tumor tissue occupied by tumor cells ([3]; vs tumor xenograft control): −30.68%
Body weight gains ([4]; NCI-H520 xenograft nude mice, 35 days, based on actual body weight): −0.40 ± 1.01ac g
Body weights At first administration [4, 14]: 18.15 ± 1.42 g
Actual body weights (excluding tumor weight) [4, 15]: 17.75 ± 1.11ac g
Body weights At sacrifice [4, 15]: 19.08 ± 1.14ac g
Periovarian fat pad White adipocyte diameters [4, 15]: 13.52 ± 3.46 μm
Periovarian fat pad absolute weight [4, 15]: 0.008 ± 0.002e
change in accumulated periovarian fat pad thickness ([4]; vs tumor xenograft control): −11.13%
change in average periovarian white fat pad cell diameter ([4]; vs tumor xenograft control): 4.41%
change in periovarian fat pad absolute weight [4, 17]: −1.52%
change in actual body weight excluding the tumor weight ([4]; vs tumor xenograft control, final sacrifice date): −8.18%
Spleen Total thickness [5, 15]: 1097.00 ± 237.39a μm/central regions
Spleen White pulp diameters [5, 15]: 334.72 ± 47.47e μm/white pulp
Spleen White pulp numbers [5, 15]: 6.13 ± 1.81e /mm2
Spleen absolute weight [5, 15]: 0.059 ± 0.010a
Submandibular lymph node Cortex lymphoid cell follicle numbers [5, 15]: 7.50 ± 2.39a /mm2
Submandibular lymph node Cortex thickness [5, 15]: 155.92 ± 34.47a μm/lymph node
Submandibular lymph node Total thickness [5, 15]: 441.48 ± 114.06a μm/central regions
Submandibular lymph node absolute weight [5, 15]: 0.003 ± 0.001a
change in cortex lymphoid cell follicle numbers ([5]; vs tumor xenograft control): 15.38%
change in submandibular lymph node total thickness ([5]; vs tumor xenograft control): −8.92%
change in total splenic thickness ([5]; vs tumor xenograft control): −1.17%
change in splenic absolute weight [5, 17]: −1.46%
change in submandibular lymph node absolute weight [5, 17]: 4.00%
change in serum IFN-γ content [6]: −0.62%
change in serum IL-6 content [6]: 2.09%
change in peritoneal NK cell activity [7]: −4.12%
change in splenic NK cell activity [7]: −6.16%
Splenic Interleukin-1β content [8, 15]: 7.82 ± 2.32 days
Splenic Interleukin-10 content [8, 15]: 23.39 ± 12.60a
change in content of splenic IL-1β [8, 17]: −3.08%
change in content of splenic IL-10 [8, 17]: −7.27%
change in content of splenic TNF-α [8, 17]: −4.79%
Mortality, Days of treatment Periods (Day 0~27) [9]: 0
